Data on 17 compounds can be found in patent US10829473B2, “Modulators of the cystic fibrosis transmembrane conductance regulator protein and methods of use” (AbbVie Overseas S.Á.R.L., priority 2017, dated 2020).

The test deals with T1, F508delCFTR (Homo sapiens, UniProt P13569, DEL508-508).
T1 construct: expressed in transfected cells; host or cells: CFBE41o- human lung derived epithelial cells (CFBE41o-F508delCFTR-HRP), doxycycline-inducible
Nature of the test: Cell Surface Expression-Horse Radish Peroxidase (CSE-HRP) Assay.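 For EC50 (with co-corrector): co-corrector chromenyl benzoic acid corrector at 2 or 3 µM.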 The format is cell-based. The conditions noted are these: for Maximum % activity (with co-corrector) / Emax: maximum at any tested concentration; for Emax: read-out: Maximum % activity (without co-corrector). Here is the method:
A cellular assay for measuring the F508delCFTR cell surface expression after correction with test compounds either without or with a co-corrector (2 μM of 3-[(2R,4R)-4-({[1-(2,2-difluoro-1,3-benzodioxol-5-yl)cyclopropyl]carbonyl}amino)-7-methoxy-3,4-dihydro-2H-chromen-2-yl]benzoic acid), was developed in human lung derived epithelial cell line (CFBE4lo−) (Veit G et al, (2012) Mol Biol Cell. 23(21): 4188-4202). The development was achieved by expressing the F508delCFTR mutation along with a horseradish peroxidase (HRP) in the fourth exofacial loop, and then measuring the HRP activity using luminescence readout from these cells, CFBE410-F508delCFTR-HRP, that were incubated overnight with the test corrector compounds, either without or with the co-corrector. For this primary assay, the CFBE410-F508delCFTR-HRP cells were plated in 384-well plates (Greiner Bio-one; Cat 781080) at 4,000 cells/well along with 0.5 μg/mL doxycycline to induce the F508delCFTR-HRP expression and further incubated at 37° C., 5% CO2 for 68-72 hours. The test compounds were then added either without or with a co-corrector at the required concentrations and further incubated for 18-24 hours at 33° C. The highest concentration tested was 20 μM or 30 μM (GI-1 to GIII-36) with an 8-point concentration response curve using a 3-fold dilution in both the test compound without or with the co-corrector. Three replicate plates were run to determine one EC50. All plates contained negative controls (dimethyl sulfoxide, DMSO) and positive control (2 μM or 3 μM (GI-1 to GIII-36) of 3-[(2R,4R)-4-({[1-(2,2-difluoro-1,3-benzodioxol-5-yl)cyclopropyl]carbonyl}amino)-7-methoxy-3,4-dihydro-2H-chromen-2-yl]benzoic acid) as well as on-plate concentration response of the positive control. Post incubation, the plates were washed 5× times with Dulbecco's phosphate buffered saline (DPBS), followed by the addition of the HRP substrate, luminol (50 4), and measuring the HRP activity using luminescence readout on EnVision® Multilabel Plate Reader (Perkin Elmer; product number 2104-0010). The raw counts from the experiment were analyzed using Accelrys® Assay Explorer v3.3.
Z′ greater than 0.5 was used as passing quality control criteria for the plates.
The Z′ is defined as: 1−[3*SDPositve Control+3*SDNegative Control/Absolute(MeanPositive Control−MeanNegative Control)] wherein “SD” is standard deviation.
The % activity measured at each of the 8 test concentrations of the test compound added either without or with a co-corrector (2 μM or 3 μM (GI-1 to GIII-36) of 3-[(2R,4R)-4-({[1-(2,2-difluoro-1,3-benzodioxol-5-yl)cyclopropyl]carbonyl}amino)-7-methoxy-3,4-dihydro-2H-chromen-2-yl]benzoic acid) was normalized to the on-plate positive control using the following formulae: % activity (Test compound without co-corrector)=[(test compound without co-corrector response DMSO response)/(positive control response DMSO response)]*100 % activity (Test compound with co-corrector)=[(test compound with co-corrector response DMSO response)/(positive control response DMSO response)]*100
The maximum % activity achieved for the test compound either without or with a co-corrector at any tested concentration is presented in Table 6 along with the respective EC50's calculated using the following general sigmoidal curve with variable Hill slope equation (described as Model 42 in the Accelrys® Assay Explorer v3.3 software): y=(a−d)/(1+(x/c)b)+d
General sigmoidal curve with concentration, response, top, bottom, EC50 and Hill slope. This model describes a sigmoidal curve with an adjustable baseline, a. The equation can be used to fit curves where response is either increasing or decreasing with respect to the independent variable, “x”.
“x” is a concentration of drug under test.
“a” is the maximum response, and “d” is the minimum response
“c” is the inflection point (EGO for the curve. That is, “y” is halfway between the lower and upper asymptotes when x=c.
“b” is the slope-factor or Hill coefficient. […]

Setting [1] is: test compound with co-corrector.
Where [2] appears, read: test compound with co-corrector, read-out: EC50 (with co-corrector).
The mark [3] stands for this setting: test compound without co-corrector.
The mark [4] stands for this setting: test compound without co-corrector, read-out: EC50 (without co-corrector).
[5] abbreviates: test compound alone, without co-corrector, read-out: EC50 (without co-corrector).
Where [6] appears, read: with co-corrector, read-out: EC50 (with co-corrector).

Read-outs that look alike come from different tables or passages of the source. Marks after values point to notes of the source that are not given here.

T1 sequence (P13569 with tags, fused parts or gaps DEL508-508): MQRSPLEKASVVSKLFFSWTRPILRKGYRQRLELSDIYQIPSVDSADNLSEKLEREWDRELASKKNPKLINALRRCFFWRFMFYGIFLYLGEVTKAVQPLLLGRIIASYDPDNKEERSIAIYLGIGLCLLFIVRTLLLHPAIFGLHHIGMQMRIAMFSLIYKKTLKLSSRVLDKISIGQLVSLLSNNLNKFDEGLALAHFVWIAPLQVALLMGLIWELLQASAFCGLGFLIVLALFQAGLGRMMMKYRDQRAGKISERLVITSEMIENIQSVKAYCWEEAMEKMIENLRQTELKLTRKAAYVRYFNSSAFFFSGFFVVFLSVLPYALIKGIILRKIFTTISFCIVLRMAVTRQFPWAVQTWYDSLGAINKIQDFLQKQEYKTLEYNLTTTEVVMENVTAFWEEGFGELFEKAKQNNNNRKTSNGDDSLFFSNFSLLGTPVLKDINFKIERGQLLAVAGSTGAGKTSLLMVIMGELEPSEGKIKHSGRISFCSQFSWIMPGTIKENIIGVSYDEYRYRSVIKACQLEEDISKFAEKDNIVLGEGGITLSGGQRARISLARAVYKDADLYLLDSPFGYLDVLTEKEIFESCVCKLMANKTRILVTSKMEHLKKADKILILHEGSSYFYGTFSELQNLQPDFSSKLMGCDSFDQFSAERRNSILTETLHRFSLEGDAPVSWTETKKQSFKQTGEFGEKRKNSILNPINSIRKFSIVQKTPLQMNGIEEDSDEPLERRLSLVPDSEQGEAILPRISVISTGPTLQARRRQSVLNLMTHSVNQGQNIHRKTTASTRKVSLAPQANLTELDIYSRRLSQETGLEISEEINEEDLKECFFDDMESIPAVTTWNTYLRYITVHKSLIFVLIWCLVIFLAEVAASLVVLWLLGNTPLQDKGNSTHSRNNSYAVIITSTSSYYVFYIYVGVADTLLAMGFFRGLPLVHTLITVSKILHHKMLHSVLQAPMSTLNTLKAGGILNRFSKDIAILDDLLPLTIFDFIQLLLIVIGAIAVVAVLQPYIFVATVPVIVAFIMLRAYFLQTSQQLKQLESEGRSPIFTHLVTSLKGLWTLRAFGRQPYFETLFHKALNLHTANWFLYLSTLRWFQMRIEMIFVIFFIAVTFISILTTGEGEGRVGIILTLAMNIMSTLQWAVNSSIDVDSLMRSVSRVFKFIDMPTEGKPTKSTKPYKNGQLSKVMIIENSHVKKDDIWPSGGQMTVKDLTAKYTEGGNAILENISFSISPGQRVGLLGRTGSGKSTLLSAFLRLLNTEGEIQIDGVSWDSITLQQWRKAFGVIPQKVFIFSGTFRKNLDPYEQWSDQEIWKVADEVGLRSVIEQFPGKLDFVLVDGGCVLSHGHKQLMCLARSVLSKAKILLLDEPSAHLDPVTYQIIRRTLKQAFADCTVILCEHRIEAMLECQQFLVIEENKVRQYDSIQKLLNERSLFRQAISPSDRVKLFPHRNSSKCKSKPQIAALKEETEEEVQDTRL

For `Cc1ccc2c(S(=O)(=O)NC(=O)C3(c4cc(C5CCC5)cnc4N4CCCC4)CC3)cccc2n1` [Example GI-29, 1-[5-cyclobutyl-2-(pyrrolidin-1-yl)pyridin-3-yl]-N-(2-methylquinoline-5-sulfonyl)cyclopropane-1-carboxamide], under setting [1], the “Maximum % activity (with co-corrector)” value is on record as “+++ (≥350)”. The EC50 (in general, the concentration that produces a half-maximal response) is, setting by setting: under setting [2], below 3 µM; under setting [4], below 3 µM. Also, the Emax under setting [3] is above 150%.
Turning to `Cc1ccc2c(S(=O)(=O)NC(=O)C3(c4cccnc4N4CCCC4)CC3)cccc2n1` [GII-34, N-(2-methylquinoline-5-sulfonyl)-1-[2-(pyrrolidin-1-yl)pyridin-3-yl]cyclopropane-1-carboxamide], under setting [1], the “EC50 (with co-corrector)” value was “++^a”; the “Maximum % activity (with co-corrector)” value is “++ (≥150 and <350)”. Under setting [3], the “EC50 (without co-corrector)” value is listed as “++^a” and the Emax fell in the range of 50 to 150%.
For the compound `CCOC(C)(C)c1ccc(OC)c(C2(C(=O)NS(=O)(=O)c3cccc4ncccc34)CC2)c1` [II-96], the EC50 was below 3 µM under setting [5] and below 3 µM under setting [6]. In addition, the “Maximum % activity (with co-corrector)” value (with co-corrector) was “+++ (≥350)”. Moreover, for the setting “without co-corrector”, the Emax was above 150%.
For the compound `Cc1cnc(OC(C)C)c(C2(C(=O)NS(=O)(=O)c3cccc4nc(C)ccc34)CC2)c1` [Example GI-58, 1-{5-methyl-2-[(propan-2-yl)oxy]pyridin-3-yl}-N-(2-methylquinoline-5-sulfonyl)cyclopropane-1-carboxamide], under setting [1], the “Maximum % activity (with co-corrector)” value was “+++ (≥350)”. In addition, the EC50 was below 3 µM under setting [2] and below 3 µM under setting [4]. The Emax under setting [3] was above 150%.
Regarding `COC[C@@H](C)Oc1ccc(C)cc1C1(C(=O)NS(=O)(=O)c2cccc3ncccc23)CC1` [Example I-95, 1-(2-{[(2R)-1-methoxypropan-2-yl]oxy}-5-methylphenyl)-N-(quinoline-5-sulfonyl)cyclopropane-1-carboxamide], the EC50 by setting is: under setting [5], below 3 µM; under setting [6], below 3 µM. Moreover, the “Maximum % activity (with co-corrector)” value (with co-corrector) is recorded as “+++ (≥350)”. Also, the Emax (without co-corrector) was above 150%.
In the case of `O=C(NS(=O)(=O)c1cccc2c1CCCN2)C1(c2cc(C3CCC3)cnc2N2CCCC2)CC1` [Example GI-31, 1-[5-cyclobutyl-2-(pyrrolidin-1-yl)pyridin-3-yl]-N-(1,2,3,4-tetrahydroquinoline-5-sulfonyl)cyclopropane-1-carboxamide], under setting [1], the “Maximum % activity (with co-corrector)” value is “+++ (≥350)”. Also, the EC50 is below 3 µM under setting [2] and below 3 µM under setting [4]. Moreover, under setting [3], the Emax is above 150%.
`CC(C)Oc1ncccc1C1(C(=O)NS(=O)(=O)c2cccc3ncccc23)CC1` [GII-3, 1-{2-[(propan-2-yl)oxy]pyridin-3-yl}-N-(quinoline-5-sulfonyl)cyclopropane-1-carboxamide]: under setting [1], the “Maximum % activity (with co-corrector)” value is “++ (≥150 and <350)”. Besides, the EC50 lay in the range of 3 to 10 µM under setting [2] and 3 to 10 µM under setting [4]. Moreover, the Emax under setting [3] was in the range of 50 to 150%.
Take `O=C(NS(=O)(=O)c1cccc2ncccc12)C1(c2cc(C3CC3)cnc2N2CCCC2)CC1` [Example GI-32, 1-[5-cyclopropyl-2-(pyrrolidin-1-yl)pyridin-3-yl]-N-(quinoline-5-sulfonyl)cyclopropane-1-carboxamide]: under setting [1], the “Maximum % activity (with co-corrector)” value is given as “+++ (≥350)”. In addition, the EC50 is below 3 µM under setting [2] and 3 to 10 µM under setting [4]. Also, the Emax under setting [3] is above 150%.
Regarding `[2H]C1(c2ccc(OC)c(C3(C(=O)NS(=O)(=O)c4cccc5ncccc45)CC3)c2)COC1` [Example III-129, 1-{2-methoxy-5-[(3-^2H)oxetan-3-yl]phenyl}-N-(quinoline-5-sulfonyl)cyclopropane-1-carboxamide], the EC50 was in the range of 3 to 10 µM under setting [5] and 3 to 10 µM under setting [6]. Further, the “Maximum % activity (with co-corrector)” value (with co-corrector) was “+++ (≥350)”. Further, the Emax (without co-corrector) is above 150%.
Consider `COc1cc(C2CCC2)cc(OC)c1C1(C(=O)NS(=O)(=O)c2cccc3nc(N)ccc23)CC1` [II-70], for which the EC50 was below 3 µM under setting [5] and below 3 µM under setting [6]. Further, the “Maximum % activity (with co-corrector)” value (with co-corrector) was “+++ (≥350)”. Moreover, the Emax (without co-corrector) was above 150%.
Regarding `O=C(NS(=O)(=O)C1CCNCC1)C1(c2ccc(Cl)cc2Cl)CC1` [Example III-77, 1-(2.4-dichlorophcnyl)-N-(piperidine-4-sulfonyl)cyclopropane-1-carboxamide], the EC50 runs as follows: under setting [5], above 10 µM; under setting [6], above 10 µM. The “Maximum % activity (with co-corrector)” value (with co-corrector) is on record as “+ (<150)”. For the same compound, under “without co-corrector”, the Emax was below 50%.
For the compound `CC1(C)CC1(C(=O)NS(=O)(=O)c1ccccc1)c1ccccc1` (centres unmarked) [Example III-61, N-(benzenesulfonyl)-2,2-dimethyl-1-phenylcyclopropane-1-carboxamide], the EC50 under setting [5] was above 10 µM and the EC50 under setting [6] was 3 to 10 µM. Moreover, under “with co-corrector”, the “Maximum % activity (with co-corrector)” value was “++ (≥150 and <350)”. For the same compound, the Emax (without co-corrector) was below 50%.
Take `CCc1cnc(OC(C)C)c(C2(C(=O)NS(=O)(=O)c3cccc4c3CCCN4)CC2)c1` [Example GI-14, 1-{5-ethyl-2-[(propan-2-yl)oxy]pyridin-3-yl}-N-(1,2,3,4-tetrahydroquinoline-5-sulfonyl)cyclopropane-1-carboxamide]: the EC50 under setting [5] was in the range of 3 to 10 µM and the EC50 under setting [6] was below 3 µM. Moreover, the “Maximum % activity (with co-corrector)” value (with co-corrector) is “+++ (≥350)”. For the same compound, the Emax (without co-corrector) was above 150%.
Consider `Cc1cccc(C2(C(=O)NS(=O)(=O)c3ccccc3C)CCOCC2)c1` [Example III-82, N-(2-methylbenzene-1-sulfonyl)-4-(3-methylphenyl)oxane-4-carboxamide], for which the EC50 under setting [5] is above 10 µM and the EC50 under setting [6] was above 10 µM. Besides, the “Maximum % activity (with co-corrector)” value (with co-corrector) is on record as “+ (<150)”. Moreover, the Emax (without co-corrector) was below 50%.
In the case of `COCCOc1ncc(C)cc1C1(C(=O)NS(=O)(=O)c2cccc3nc(C)ccc23)CC1` [GII-50, 1-[2-(2-methoxyethoxy)-5-methylpyridin-3-yl]-N-(2-methylquinoline-5-sulfonyl)cyclopropane-1-carboxamide], the “Maximum % activity (with co-corrector)” value under setting [1] is reported as “+++ (≥350)”. The EC50 under setting [2] was 3 to 10 µM. In addition, under setting [3], the “EC50 (without co-corrector)” value is given as “++^a” and the Emax was above 150%.
Consider `COC1CCN(c2ncc(C3CCC3)cc2C2(C(=O)NS(=O)(=O)c3cccc4[nH]ccc34)CC2)CC1` [Example GI-57, 1-[5-cyclobutyl-2-(4-methoxypiperidin-1-yl)pyridin-3-yl]-N-(1H-indole-4-sulfonyl)cyclopropane-1-carboxamide], for which the “Maximum % activity (with co-corrector)” value under setting [1] is listed as “+++ (≥350)”. In addition, the EC50 was below 3 µM under setting [2] and below 3 µM under setting [4]. For the same compound, under setting [3], the Emax was above 150%.
As to `CCc1cnc(OC(C)C)c(C2(C(=O)NS(=O)(=O)c3cccc4nc(C)ccc34)CC2)c1` [Example GI-40, 1-{5-ethyl-2-[(propan-2-yl)oxy]pyridin-3-yl}-N-(2-methylquinoline-5-sulfonyl)cyclopropane-1-carboxamide], the “Maximum % activity (with co-corrector)” value under setting [1] is “+++ (≥350)”. Also, the EC50 under setting [2] is below 3 µM and the EC50 under setting [4] is below 3 µM. Besides, the Emax under setting [3] was above 150%.
